Test results taken from ChEMBL document CHEMBL3046652, “Photodimerization of heteroaryl chalcones: comparative antimicrobial activities of chalcones and their photoproducts” (2012).
In brackets after ≈: the same amount, converted by molar mass.

Key:
Type in all cases: functional
Candida albicans [1] = experiment: Antimicrobial activity against Candida albicans at 10 to 60 ug/disk by disk diffusion method
Priestia megaterium [2] = experiment: Antimicrobial activity against Bacillus megaterium at 10 to 60 ug/disk by disk diffusion method
Salmonella typhi [3] = experiment: Antimicrobial activity against Salmonella enterica subsp. enterica serovar Typhi at 10 to 60 ug/disk by disk diffusion method
Micrococcus luteus [4] = experiment: Antimicrobial activity against Micrococcus luteus at 10 to 60 ug/disc by disk diffusion method
Aspergillus niger [5] = experiment: Antimicrobial activity against Aspergillus niger at 10 to 60 ug/disk by disk diffusion method
Citrobacter freundii [6] = experiment: Antimicrobial activity against Citrobacter freundii at 10 to 60 ug/disk by disk diffusion method
Aspergillus oryzae [7] = experiment: Antimicrobial activity against Aspergillus oryzae at 10 to 60 ug/disk by disk diffusion method
Pseudomonas aeruginosa [8] = experiment: Antimicrobial activity against Pseudomonas aeruginosa at 10 to 60 ug/disk by disk diffusion method
Fusarium verticillioides [9] = experiment: Antimicrobial activity against Fusarium verticillioides at 10 to 60 ug/disk by disk diffusion method
Klebsiella pneumoniae [10] = experiment: Antimicrobial activity against Klebsiella pneumoniae at 10 to 60 ug/disk by disk diffusion method
Proteus vulgaris [11] = experiment: Antimicrobial activity against Proteus vulgaris at 10 to 60 ug/disk by disk diffusion method
Escherichia coli [12] = experiment: Antimicrobial activity against Escherichia coli at 10 to 60 ug/disk by disk diffusion method
Serratia marcescens [13] = experiment: Antimicrobial activity against Serratia marcescens at 10 to 60 ug/disk by disk diffusion method
Pseudomonas aeruginosa [14] = experiment: Antimicrobial activity against Pseudomonas aeruginosa by disk diffusion method
Citrobacter freundii [15] = experiment: Antimicrobial activity against Citrobacter freundii at 20 ug/disk by disk diffusion method; settings: read-out: DIZ
Pseudomonas aeruginosa [16] = experiment: Antimicrobial activity against Pseudomonas aeruginosa at 10 ug/disk by disk diffusion method; settings: read-out: DIZ
Salmonella typhi [17] = experiment: Antimicrobial activity against Salmonella enterica subsp. enterica serovar Typhi at 10 ug/disk by disk diffusion method; settings: read-out: DIZ
Aspergillus niger [18] = experiment: Antimicrobial activity against Aspergillus niger at 20 ug/disk by disk diffusion method; settings: read-out: DIZ
Priestia megaterium [19] = experiment: Antimicrobial activity against Bacillus megaterium by disk diffusion method
Escherichia coli [20] = experiment: Antimicrobial activity against Escherichia coli at 10 ug/disk by disk diffusion method; settings: read-out: DIZ
Citrobacter freundii [21] = experiment: Antimicrobial activity against Citrobacter freundii by disk diffusion method
Salmonella typhi [22] = experiment: Antimicrobial activity against Salmonella enterica subsp. enterica serovar Typhi by disk diffusion method
Micrococcus luteus [23] = experiment: Antimicrobial activity against Micrococcus luteus at 10 ug/disc by disk diffusion method; settings: read-out: DIZ
Serratia marcescens [24] = experiment: Antimicrobial activity against Serratia marcescens by disk diffusion method
Escherichia coli [25] = experiment: Antimicrobial activity against Escherichia coli by disk diffusion method
Aspergillus oryzae [26] = experiment: Antimicrobial activity against Aspergillus oryzae at 10 ug/disk by disk diffusion method; settings: read-out: DIZ
Serratia marcescens [27] = experiment: Antimicrobial activity against Serratia marcescens at 20 ug/disk by disk diffusion method; settings: read-out: DIZ
Proteus vulgaris [28] = experiment: Antimicrobial activity against Proteus vulgaris by disk diffusion method
Proteus vulgaris [29] = experiment: Antimicrobial activity against Proteus vulgaris at 20 ug/disk by disk diffusion method; settings: read-out: DIZ
Priestia megaterium [30] = experiment: Antimicrobial activity against Bacillus megaterium at 10 ug/disk by disk diffusion method; settings: read-out: DIZ
Micrococcus luteus [31] = experiment: Antimicrobial activity against Micrococcus luteus by disk diffusion method
Candida albicans [32] = experiment: Antimicrobial activity against Candida albicans at 40 ug/disk by disk diffusion method; settings: read-out: DIZ
Fusarium verticillioides [33] = experiment: Antimicrobial activity against Fusarium verticillioides at 10 ug/disk by disk diffusion method; settings: read-out: DIZ
Klebsiella pneumoniae [34] = experiment: Antimicrobial activity against Klebsiella pneumoniae by disk diffusion method
Aspergillus niger [35] = experiment: Antimicrobial activity against Aspergillus niger at 50 ug/disk by disk diffusion method; settings: read-out: DIZ
Fusarium verticillioides [36] = experiment: Antimicrobial activity against Fusarium verticillioides at 40 ug/disk by disk diffusion method; settings: read-out: DIZ
Pseudomonas aeruginosa [37] = experiment: Antimicrobial activity against Pseudomonas aeruginosa at 40 ug/disk by disk diffusion method; settings: read-out: DIZ
Klebsiella pneumoniae [38] = experiment: Antimicrobial activity against Klebsiella pneumoniae at 20 ug/disk by disk diffusion method; settings: read-out: DIZ
Proteus vulgaris [39] = experiment: Antimicrobial activity against Proteus vulgaris at 10 ug/disk by disk diffusion method; settings: read-out: DIZ
Serratia marcescens [40] = experiment: Antimicrobial activity against Serratia marcescens at 10 ug/disk by disk diffusion method; settings: read-out: DIZ
Candida albicans [41] = experiment: Antimicrobial activity against Candida albicans at 10 ug/disk by disk diffusion method; settings: read-out: DIZ
Salmonella typhi [42] = experiment: Antimicrobial activity against Salmonella enterica subsp. enterica serovar Typhi at 50 ug/disk by disk diffusion method; settings: read-out: DIZ
Escherichia coli [43] = experiment: Antimicrobial activity against Escherichia coli at 30 ug/disk by disk diffusion method; settings: read-out: DIZ
Aspergillus oryzae [44] = experiment: Antimicrobial activity against Aspergillus oryzae at 30 ug/disk by disk diffusion method; settings: read-out: DIZ
Fusarium verticillioides [45] = experiment: Antimicrobial activity against Fusarium verticillioides at 30 ug/disk by disk diffusion method; settings: read-out: DIZ

SMILES | diameter of the inhibition zone (DIZ) (Candida albicans [1]) | diameter of the inhibition zone (DIZ) (Priestia megaterium [2]) | diameter of the inhibition zone (DIZ) (Salmonella typhi [3]) | diameter of the inhibition zone (DIZ) (Micrococcus luteus [4]) | diameter of the inhibition zone (DIZ) (Aspergillus niger [5]) | diameter of the inhibition zone (DIZ) (Citrobacter freundii [6]) | diameter of the inhibition zone (DIZ) (Aspergillus oryzae [7]) | diameter of the inhibition zone (DIZ) (Pseudomonas aeruginosa [8]) | diameter of the inhibition zone (DIZ) (Fusarium verticillioides [9]) | diameter of the inhibition zone (DIZ) (Klebsiella pneumoniae [10]) | diameter of the inhibition zone (DIZ) (Proteus vulgaris [11]) | diameter of the inhibition zone (DIZ) (Escherichia coli [12]) | diameter of the inhibition zone (DIZ) (Serratia marcescens [13]) | MIC (Pseudomonas aeruginosa [14]) | zone of inhibition at 20 µg/disc (Citrobacter freundii [15]) | MIC (Priestia megaterium [19]) | MIC (Citrobacter freundii [21]) | MIC (Salmonella typhi [22]) | zone of inhibition at 10 µg/disc (Micrococcus luteus [23]) | MIC (Serratia marcescens [24]) | further results
OC(/C=C/c1ccco1)(c1ccccc1)C(O)(/C=C/c1ccco1)c1ccccc1 (stereo not given) | 5 mm | 7 mm | 5 mm | 6 mm | 9 mm | 9 mm | 5 mm | 5 mm | 7 mm | 5 mm | 9 mm | 5 mm | 5 mm | – | – | – | – | – | – | – | –
OC(/C=C/c1cccs1)(c1ccccc1)C(O)(/C=C/c1cccs1)c1ccccc1 (stereo not given) | 5 mm | 5 mm | 7 mm | 8 mm | 5 mm | 5 mm | 5 mm | 5 mm | 5 mm | 7 mm | 5 mm | 5 mm | 5 mm | – | – | – | – | – | – | – | –
OC(/C=C/c1ccc[nH]1)(c1ccccc1)C(O)(/C=C/c1ccc[nH]1)c1ccccc1 (stereo not given) | 5 mm | 5 mm | 5 mm | 5 mm | 5 mm | 5 mm | 9 mm | 5 mm | 5 mm | 5 mm | 5 mm | 5 mm | 5 mm | – | – | – | – | – | – | – | –
O=C(/C=C/c1ccccc1)c1cccs1 | – | – | – | – | – | – | – | – | – | 10 mm | – | – | – | 10 µg/mL (≈ 46.7 µM) | 7 mm | 10 µg/mL (≈ 46.7 µM) | 10 µg/mL (≈ 46.7 µM) | 10 µg/mL (≈ 46.7 µM) | 9 mm | 10 µg/mL (≈ 46.7 µM) | zone of inhibition at 10 µg/disc (Pseudomonas aeruginosa [16]): 5 mm; zone of inhibition at 10 µg/disc (Salmonella typhi [17]): 12 mm; zone of inhibition at 20 µg/disc (Aspergillus niger [18]): 7 mm; zone of inhibition at 10 µg/disc (Escherichia coli [20]): 5 mm; MIC (Escherichia coli [25]): 10 µg/mL (≈ 46.7 µM); zone of inhibition at 10 µg/disc (Aspergillus oryzae [26]): 9 mm; zone of inhibition at 20 µg/disc (Serratia marcescens [27]): 9 mm; MIC (Proteus vulgaris [28]): 10 µg/mL (≈ 46.7 µM); zone of inhibition at 20 µg/disc (Proteus vulgaris [29]): 11 mm; zone of inhibition at 10 µg/disc (Priestia megaterium [30]): 10 mm; MIC (Micrococcus luteus [31]): 10 µg/mL (≈ 46.7 µM); zone of inhibition at 40 µg/disc (Candida albicans [32]): 9 mm; zone of inhibition at 10 µg/disc (Fusarium verticillioides [33]): 9 mm; MIC (Klebsiella pneumoniae [34]): 10 µg/mL (≈ 46.7 µM)
O=C(/C=C/c1ccc[nH]1)c1ccccc1 | – | – | – | – | – | – | – | – | – | – | – | – | – | 10 µg/mL (≈ 50.7 µM) | 9 mm | 10 µg/mL (≈ 50.7 µM) | 10 µg/mL (≈ 50.7 µM) | 10 µg/mL (≈ 50.7 µM) | 7 mm | 10 µg/mL (≈ 50.7 µM) | zone of inhibition at 50 µg/disc (Aspergillus niger [35]): 8 mm; zone of inhibition at 10 µg/disc (Salmonella typhi [17]): 5 mm; zone of inhibition at 40 µg/disc (Fusarium verticillioides [36]): 6 mm; zone of inhibition at 10 µg/disc (Escherichia coli [20]): 6 mm; zone of inhibition at 40 µg/disc (Pseudomonas aeruginosa [37]): 9 mm; MIC (Escherichia coli [25]): 10 µg/mL (≈ 50.7 µM); zone of inhibition at 10 µg/disc (Aspergillus oryzae [26]): 9 mm; MIC (Proteus vulgaris [28]): 10 µg/mL (≈ 50.7 µM); zone of inhibition at 10 µg/disc (Priestia megaterium [30]): 12 mm; MIC (Micrococcus luteus [31]): 10 µg/mL (≈ 50.7 µM); zone of inhibition at 20 µg/disc (Klebsiella pneumoniae [38]): 9 mm; zone of inhibition at 40 µg/disc (Candida albicans [32]): 7 mm; zone of inhibition at 10 µg/disc (Proteus vulgaris [39]): 5 mm; zone of inhibition at 10 µg/disc (Serratia marcescens [40]): 7 mm; MIC (Klebsiella pneumoniae [34]): 10 µg/mL (≈ 50.7 µM)
O=C(/C=C/c1ccccc1)c1ccc[nH]1 | – | – | – | – | – | – | – | – | – | – | – | – | – | 10 µg/mL (≈ 50.7 µM) | 6 mm | 10 µg/mL (≈ 50.7 µM) | 10 µg/mL (≈ 50.7 µM) | 10 µg/mL (≈ 50.7 µM) | 7 mm | 10 µg/mL (≈ 50.7 µM) | zone of inhibition at 10 µg/disc (Candida albicans [41]): 7 mm; zone of inhibition at 50 µg/disc (Salmonella typhi [42]): 7 mm; zone of inhibition at 30 µg/disc (Escherichia coli [43]): 7 mm; zone of inhibition at 20 µg/disc (Aspergillus niger [18]): 11 mm; zone of inhibition at 40 µg/disc (Pseudomonas aeruginosa [37]): 7 mm; zone of inhibition at 30 µg/disc (Aspergillus oryzae [44]): 9 mm; MIC (Escherichia coli [25]): 10 µg/mL (≈ 50.7 µM); MIC (Proteus vulgaris [28]): 10 µg/mL (≈ 50.7 µM); zone of inhibition at 30 µg/disc (Fusarium verticillioides [45]): 8 mm; zone of inhibition at 10 µg/disc (Priestia megaterium [30]): 13 mm; MIC (Micrococcus luteus [31]): 10 µg/mL (≈ 50.7 µM); zone of inhibition at 20 µg/disc (Klebsiella pneumoniae [38]): 8 mm; zone of inhibition at 10 µg/disc (Proteus vulgaris [39]): 5 mm; zone of inhibition at 10 µg/disc (Serratia marcescens [40]): 9 mm; MIC (Klebsiella pneumoniae [34]): 10 µg/mL (≈ 50.7 µM)
